How the values were obtained:
[1] = test system: mixed bacterial inoculum (Table 6); assay: Challenge test (preservative efficacy), mixed bacterial inoculum, full pool (Table 6); type: cell-based
Protocol: (§1) The preservative activity in representative rinse-off and leave-on formulations was evaluated using a modification of the Personal Care Products Council (PCPC—formerly the Cosmetic, Toiletry and Fragrance Association) protocol (Machtiger, et al. 2001. Determination of the Efficacy of Preservation of Non-Eye Area Water Miscible Cosmetic and Toiletry Formulations: Collaborative Study. J of AOAC International. 84:1, 101-109).
(§2) This evaluation was conducted using a four week, two or three-cycle (i.e., two-cycle for personal care and three-cycle for home care applications) microbial preservative efficacy test (i.e., challenge test) at 25° C. to determine the preservative efficacy of each treatment. Phenoxyethanol, benzyl alcohol and pelargonic acid were tested alone and in various combinations. The pelargonic acid used in the testing was purchased from Sigma-Aldrich. Combinations of phenoxyethanol or benzyl alcohol with benchmark multifunctional booster compounds were also tested for comparison. The preservative and booster ingredients were dosed and mixed thoroughly at room temperature into various formulations, specifically different personal care formulations including a lotion (leave-on, Table 1), a micellar water (rinse-off, Table 2), and a body wash formulation (rinse-off, Table 3) and different home care formulations including a manual dishwashing formulation (Table 4) and a liquid laundry detergent formulation (Table 5). […] Carbomers are a commonly used synthetic rheological modifier in personal care products. The formulation below was made by heating the aqueous (A) and oil (B) phases separately to 75-80° C. The oil phase was then poured into the aqueous phase and mixed by a homogenizer at approximately 45° C. The formed oil-in-water emulsion was cooled to room temperature. Triethanolamine and/or diluted sodium hydroxide was used to adjust the final pH to 6.3 or 6.5 (as indicated in the examples below).
(§3) After dosing, the samples were divided into two separate five gram aliquots. One aliquot was inoculated with 50 μl of a diluted bacterial pool, and the second aliquot was inoculated with 50 μl of a diluted fungal pool as described below. Unpreserved product samples were included as a growth control.
(§4) For personal care products, a mixed bacterial inoculum was prepared using 24-hour cultures of the test bacteria (Table 6) grown in trypticase soy broth (TSB). For home care products, a mixed bacterial inoculum was prepared using 24-hour cultures of the test bacteria either from Table 6 (full pool) or Table 7 (simplified pool) grown in trypticase soy broth (TSB). Details are disclosed in the home care examples below. Equal volumes of the bacterial test strains were combined and diluted one to ten in phosphate buffer to obtain an inoculum of approximately 5×10^7 to 5×10^8 colony forming units per ml (cfu/ml). The test samples were inoculated with 1% of the mixed bacterial inoculum. For both personal care and home care products, a mixed fungal inoculum was prepared using cell suspensions of the yeast Candida albicans ATCC #10231 and the mold Aspergillus brasiliensis ATCC #16404 in phosphate buffer. Equal volumes of the fungal test strains were combined and diluted one to ten with phosphate buffer to obtain an inoculum of approximately 5×10^6 to 5×10^7 cfu/ml. The test samples were inoculated with 1% of the mixed fungal inoculum.
(§5) For personal care products, the samples were subjected to two microbial challenges at time zero and inoculated a second time after seven days. For home care products, the samples were subjected to three microbial challenges at time zero and inoculated a second and third time after seven and fourteen days, respectively. The number of microorganisms added to each sample was determined by a standard Most Probable Number (MPN) determination in Trypticase Soy Broth (TSB) for bacteria and Potato Dextrose Broth (PDB) for fungi. Samples were incubated at 25° C. for the test duration of four weeks.

[2] = test system: mixed bacterial inoculum for home care (Table 7); assay: Challenge test (preservative efficacy), mixed bacterial inoculum, simplified pool (Table 7); type: cell-based, Pseudomonas aeruginosa, Staphylococcus aureus; details: dosed 1.0 wt %
Protocol: as §1, §2, §3, §4, §5

[3] = test system: bacteria (Table 7 pool) and fungi; assay: Challenge test, overall result (simplified bacteria pool and fungi); type: cell-based; details: dosed 1.0 wt %
Protocol: as §1, §2, §3, §4, §5

[4] = ZenBio Cupric Ion Chelating (CIC) Assay; type: physicochemical; details: calculated from a EDTA calibration curve, Pelargonic Acid at 775 μM
Protocol: The chelation property of the pelargonic acid was measured by using the ZenBio Cupric Ion Chelating (CIC) Assay (Cat #AOX-16). The assay measured the capacity of the pelargonic acid to chelate free cupric ions in solution, thereby inhibiting Cu(II) binding to pyrocatechol violet (PV) for generating a highly colored complex. The absorbance of the Cupric-PV complex was measured at a wavelength of 632 nm. The cupric ion chelating activity was determined as the percent of total PV over the Cu(II) binding. Ethylenediaminetetraacetic acid (EDTA), a well-known chelating agent, was used as a positive control. A series of EDTA with 7 different concentrations from 0 to 1000 μM were prepared and their corresponding absorbance measured and used as the calibration curve (Cupric ion chelating (%) vs. EDTA concentration). Percent cupric ion chelating was determined following the following calculations and Equation 1. The background absorbance value by averaging the absorbance values of the three background wells (no CuSO4 or sample). The average background absorbance was then subtracted from all the sample absorbance values. The maximal absorbance value (Absmax) was determined by averaging the absorbance values of the three wells containing CuSO4, PV and assay buffer. Abstest in Equation 1 is the absorbance of the test sample.
The calibration curve (Cupric ion chelating (%) vs. EDTA concentration) was fit by using a polynomial curve after log 10 transforming the concentrations (R2>0.98).

[5] = test system: mixed fungal inoculum: Candida albicans ATCC #10231 and Aspergillus brasiliensis ATCC #16404; assay: Challenge test (preservative efficacy), mixed fungal inoculum; type: cell-based
Protocol: as §1, §2, §3, §4, §5

[6] = test system: bacteria (Table 6 pool) and fungi; assay: Challenge test, overall result (full bacteria pool and fungi); type: cell-based
Protocol: as §1, §2, §3, §4, §5

[7] = body wash, pH 6.5, Example 1E, dosed 0.5 wt %
[8] = lotion with carbomer, pH 6.3, Example 1A, dosed 0.5 wt %
[9] = lotion with carbomer, pH 6.3, Example 1A, dosed 1.0 wt %
[10] = lotion with carbomer, pH 6.5, Example 1I, total dosing 0.8 wt %
[11] = liquid laundry detergent, pH 7.5, Example 1H, dosed 1.0 wt %
[12] = micellar water, pH 6.0, Example 1B, dosed 0.5 wt %
[13] = micellar water, pH 6.0, Example 1C, dosed 0.3 wt %

With CCCCCCCCC(=O)O [Pelargonic Acid, nonanoic acid] the “Bacteria growth rating Result” value [1, 7] was “Fail (growth rating score caused by bacteria of 2 or more at days 21-28 of the testing period)”, the “Bacteria growth rating Result” value ([1]; liquid laundry detergent, pH 7.5, full bacteria pool, Example 1H, dosed 1.0 wt %) was “Fail (growth rating score caused by bacteria of 2 or more at days 21-28 of the testing period)” and the “Bacteria growth rating Result” value [1, 8] was “Fail (growth rating score caused by bacteria of 2 or more at days 21-28 of the testing period)”. For the same compound, the “Bacteria growth rating Result” value [1, 9] was “Fail (growth rating score caused by bacteria of 2 or more at days 21-28 of the testing period)”, the “Bacteria growth rating Result” value ([1]; lotion with carbomer, pH 6.3, Example 1D, dosed 0.8 wt %) was “Fail (growth rating score caused by bacteria of 2 or more at days 21-28 of the testing period)” and the “Bacteria growth rating Result” value [1, 10] was “Fail (growth rating score caused by bacteria of 2 or more at days 21-28 of the testing period)”. For the same compound, the “Bacteria growth rating Result” value ([1]; micellar water, pH 6.0, bacteria inoculation ~10^7 cfu/ml, Example 1B, dosed 0.5 wt %) was “Fail (growth rating score caused by bacteria of 2 or more at days 21-28 of the testing period)”, the “Bacteria growth rating Result” value ([1]; micellar water, pH 6.0, bacteria inoculation ~10^8 cfu/ml, Example 1C, dosed 0.3 wt %) was “Fail (growth rating score caused by bacteria of 2 or more at days 21-28 of the testing period)” and the “Bacteria growth rating Result” value ([2]; liquid laundry detergent, pH 7.5, simplified bacteria pool, Example 1G) was “Fail (growth rating score caused by bacteria of 2 or more at days 21-28 of the testing period)”. The “Bacteria growth rating Result” value ([2]; manual dishwashing formulation, pH 5.5, simplified bacteria pool, Example 1F) was “Fail (growth rating score caused by bacteria of 2 or more at days 21-28 of the testing period)”, the “Overall Result” value ([3]; liquid laundry detergent, pH 7.5, Example 1G) was “Fail” and the “Overall Result” value ([3]; manual dishwashing formulation, pH 5.5, Example 1F) was “Fail”. The “Calculated EDTA equivalent” value [4] was 667 µM, the “Fungi growth rating Result” value [5, 7] was “Pass (growth rating score caused by fungi of 2 or less at days 21-28 of the testing period)” and the “Fungi growth rating Result” value ([5]; liquid laundry detergent, pH 7.5, Example 1G, dosed 1.0 wt %) was “Fail (growth rating score caused by fungi of more than 2 at days 21-28 of the testing period)”. The “Fungi growth rating Result” value [5, 11] was “Fail (growth rating score caused by fungi of more than 2 at days 21-28 of the testing period)”, the “Fungi growth rating Result” value [5, 8] was “Fail (growth rating score caused by fungi of more than 2 at days 21-28 of the testing period)” and the “Fungi growth rating Result” value [5, 9] was “Fail (growth rating score caused by fungi of more than 2 at days 21-28 of the testing period)”. The “Fungi growth rating Result” value [5, 10] was “Fail (growth rating score caused by fungi of more than 2 at days 21-28 of the testing period)”, the “Fungi growth rating Result” value ([5]; manual dishwashing formulation, pH 5.5, Example 1F, dosed 1.0 wt %) was “Fail (growth rating score caused by fungi of more than 2 at days 21-28 of the testing period)” and the “Fungi growth rating Result” value [5, 12] was “Fail (growth rating score caused by fungi of more than 2 at days 21-28 of the testing period)”. The “Fungi growth rating Result” value [5, 13] was “Fail (growth rating score caused by fungi of more than 2 at days 21-28 of the testing period)”, the “Overall Result” value [6, 7] was “Fail” and the “Overall Result” value [6, 11] was “Fail”. For the same compound, the “Overall Result” value [6, 8] was “Fail”, the “Overall Result” value [6, 9] was “Fail” and the “Overall Result” value [6, 10] was “Fail”. For the same compound, the “Overall Result” value [6, 12] was “Fail” and the “Overall Result” value [6, 13] was “Fail”.

Reference: patent publication US20260191192A1, “ANTIMICROBIAL COMPOSITIONS COMPRISING PELARGONIC ACID” (LANXESS Corporation, priority 2023, published 2026)
